Where two headings read alike, the source gives them in different places.
What was measured:
hTLR2 = biological target: T1, hTLR2 (Homo sapiens, UniProt O60603); assay: HEK hTLR2 NF-κB SEAP reporter assay; format: cell-based; conditions: even at higher concentrations
T1 construct: expressed in transfected cells; host or cells: HEK reporter cells
Experimental: (§1) FIGS. 3A-3E. PVP-179 is a TLR8 agonist. FIG. 3A: PVP-179 was sent to InvivoGen for PRR ligand screening service. Various cells lines were utilized to screen for PVP-179-induced ([…]) activation of TLRs, NOD1/2, RIG-I/MDA-5, Dectin-1 or Mincle receptor. The heat-map depicts percentage activity compared to the positive control for each receptor. FIG. 3B: PVP-179 induced activity (% activity compared to the positive control: CL075 at 1 μg/mL) in HEK-293 cells specifically expressing hTLR8. In brief, these cells have an NF-κB/AP-1-inducible secreted embryonic alkaline phosphatase (SEAP) reporter gene which allows monitoring of signaling via TLR8. After incubation for 16-24 hours, supernatant harvested from the cells is mixed with media containing SEAP-substrate and the optical density (OD) is measured at 650 nm using a spectrophotometer. FIG. 3C: As in FIG. 3B, HEK cells specifically expressing hTLR2, hTLR7, or hTLR8, in addition to the HEK-Null cell line carrying only the reporter gene, were stimulated with the indicated concentrations of PVP-179. […] PVP-179 activity is expressed as a percentage of NF-κB induced in the cells stimulated with TNF (positive control for each cell line). […] The supernatants were harvested after 20-24 hours and SEAP production (to assess NF-κB activity) was measured using QUANTIBlue assay. […]

null HEK cells = assay: HEK-Null reporter cell line (reporter gene only); format: cell-based, human; conditions: negative control cells, even at higher concentrations
Experimental: as §1

human adult PBMCs = assay: TNF ELISA in human adult PBMCs after TLR8 inhibitor CUCPT-9a; format: cell-based; conditions: CUCPT-9a pre-incubation
Experimental: FIG. 3E: As in FIG. 3D, PBMCs isolated from human adult donors were cultured with 10% autologous plasma and incubated with CUCPT-9a. After inhibition, cells were stimulated with DMSO, TL8-506 (TLR8 specific agonist), LPS (TLR4 agonist; negative control) and different concentrations of PVP-179. Supernatants were harvested after 20-24 hours and analyzed for production of TNF via ELISA. N=6 donors.
Next a TLR8-specific pharmacological inhibitor (CUCPT-9a), which stabilizes the TLR8 dimer in its resting state, was used to inhibit activity downstream of TLR8.

[1] = tested on: murine bone marrow-derived dendritic cells; assay: mTNF and mIL-6 ELISA in murine bone-marrow-derived dendritic cells; format: cell-based; conditions: murine BMDCs, 18 hours
Experimental: (§2) FIGS. 4A-4D. PVP-179 activates human macrophages and dendritic cells. FIGS. 4A-4B: Murine mononuclear cells were isolated from bone marrow and induced differentiation into dendritic cells (with GM-CSF and IL-4). After 5 days of culturing, these bone-marrow-derived dendritic cells (BMDCs) were stimulated with PVP-179 or MPLA for 18 hours at indicated concentrations. The supernatants were analyzed via ELISA where each dot in the graph represents the mean production of mTNF (FIG. 4A) and mIL-6 (FIG. 4B). N=6 for PVP-179, N=3 for MPLA. Two-way Anova was performed to determine statistical significance. The comparisons shown are compared to control group (0 M PVP-179). FIGS. 4C-4D: PBMCs were isolated from blood of adult human donors. CD14+ monocytes were specifically isolated from the PBMCs and were then cultured in 10% autologous plasma and induced to differentiate into macrophages with M-CSF (FIG. 4C), or dendritic cells with GM-CSF and IL-4 (FIG. 4D). After 5 days, cells were harvested from each differentiated cell type (macrophages: Mφ; dendritic cells: MoDCs) and a 96-well plate was setup with 100,000 cells/well. Cells were then stimulated with indicated concentrations of PVP-179 or R848 (33 μM) or LPS (100 ng/mL). After 20-24 hours of incubation, supernatants were harvested and applied to TNF ELISA. N=2 donors.

[2] = tested on: human monocyte derived dendritic cells; assay: TNF ELISA in human monocyte derived dendritic cells (MoDCs); format: cell-based; conditions: 20-24 hours
Experimental: as §2

[3] = tested on: Balb/c murine model of SARS-CoV-2 immunization; format: in vivo, BALB/c mice; conditions: for rSpike immunogenicity: prime Day 0, boost Day 14

T1 sequence (O60603 21-784): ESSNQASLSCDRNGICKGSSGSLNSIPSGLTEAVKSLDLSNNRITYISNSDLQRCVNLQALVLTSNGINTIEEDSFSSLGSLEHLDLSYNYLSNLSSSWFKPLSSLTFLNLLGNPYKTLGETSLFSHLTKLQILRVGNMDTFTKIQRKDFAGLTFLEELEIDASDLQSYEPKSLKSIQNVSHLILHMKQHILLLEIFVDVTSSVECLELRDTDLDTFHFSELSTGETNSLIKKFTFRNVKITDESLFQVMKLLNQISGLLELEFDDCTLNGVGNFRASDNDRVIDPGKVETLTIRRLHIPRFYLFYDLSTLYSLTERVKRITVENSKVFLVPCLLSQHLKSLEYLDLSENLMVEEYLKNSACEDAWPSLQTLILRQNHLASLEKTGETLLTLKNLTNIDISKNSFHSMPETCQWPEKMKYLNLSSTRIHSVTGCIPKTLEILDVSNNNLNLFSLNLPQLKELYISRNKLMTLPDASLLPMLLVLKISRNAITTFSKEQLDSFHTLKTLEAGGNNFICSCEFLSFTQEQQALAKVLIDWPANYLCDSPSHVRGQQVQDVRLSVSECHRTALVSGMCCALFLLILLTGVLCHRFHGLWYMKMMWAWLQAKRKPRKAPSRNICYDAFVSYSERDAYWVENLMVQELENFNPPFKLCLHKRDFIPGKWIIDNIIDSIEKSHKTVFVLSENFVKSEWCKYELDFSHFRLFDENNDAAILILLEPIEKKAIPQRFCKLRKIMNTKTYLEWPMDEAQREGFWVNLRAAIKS

CCCCn1c(/N=C/c2nc3ccccc3n2C)nc2ccccc21 [PVP-179] was tested, and the “NF-κB activity in HEK cells expressing hTLR2” value (hTLR2) was “no activity was detected”, the “NF-κB activity in null HEK cells” value (null HEK cells) was “no activity was detected” and the “PVP-179 induced TNF production after CUCPT-9a” value (human adult PBMCs) was “completely blocked”. The “cytokine inducing activity (mTNF, mIL-6)” value [1] was “minimal cytokine inducing activity”, the TNF-inducing activity [2] was “concentration-dependent activity” and the adjuvant activity ([3]; adult mice) was “adjuvant activity”. For the same compound, the rSpike immunogenicity ([3]; adult mice (12 weeks)) was “enhanced rSpike immunogenicity”, the antibody subtype enhanced ([3]; aged mice) was “primarily enhanced the production of anti-rSpike IgG1 subtype antibodies” and the rSpike immunogenicity ([3]; aged mice (52 weeks/12 months old)) was “enhanced rSpike immunogenicity”. The “antibody titers compared to rSpike alone” value ([3]; aged mice, Day 28 serum) was 2-5 fold.
